From patent publication US20170050945A1, “COMPOSITIONS AND METHODS FOR THE TREATMENT OF SARCOIDOSIS” (INSMED INCORPORATED, priority 2015, published 2017)

How the values were obtained:
[1] = system: LPS-stimulated TNF-α production in rat alveolar macrophages (NR8383); assay: Inhibition of LPS-stimulated TNF-α production in rat alveolar macrophages (NR8383), TNF ELISA; assay type: cell-based; details: Macrophage, NR8383 cells, co-treated with 25 ng/mL LPS, 20 h
Experimental: (§1) Rat alveolar macrophages (NR8383) were co-treated with 25 ng/mL lipopolysaccharide (LPS) and mycophenolate sodium at concentrations ranging from 0.15 to about 15 μm for a period of 20 h. After this period, the cell supernatants were collected for TNF measurement and the remaining macrophages were assessed for cytotoxicity. TNF concentrations were assayed using a rat TNF ELISA kit available from ThermoFisher. Cytotoxicity was determined using the CellTox green assay available from Promega.
(§2) Inhibition of TNF-α production was calculated as a percentage of LPS-stimulated TNF production in the absence of mycophenolate sodium.

[2] = system: LPS-stimulated TNF-α production in THP-1 derived human macrophages; assay: Inhibition of LPS-stimulated TNF-α production in human THP-1 derived macrophages, TNF ELISA; assay type: cell-based; details: 4 h pre-incubation, then 100 pg/mL LPS for 16 h
Experimental: (§3) THP-1 cells were cultured in media with 50 ng/mL phorbol myristate acetate (PMA) for 24 h and then in fresh media without PMA for an additional 24 h. […] The well plates were treated with mycophenolate sodium at concentrations ranging from 0.03 to 10 μm and incubated for a period for 4 h. After this period, LPS was added to each well plate at a concentration of 100 pg/mL and the LPS-, mycophenolate-treated well plates were incubated for 16 h. After 16 h, the cell supernatants were collected for TNF measurement and the remaining macrophages were assessed for cytotoxicity. TNF concentrations were assayed using a human TNF ELISA kit available from ThermoFisher. Cytotoxicity was determined using the CellTox green assay available from Promega.
as §2

[3] = system: THP-1 derived human macrophages; assay: Cytotoxicity toward human THP-1 derived macrophages, CellTox green assay; assay type: cell-based
Experimental: as §3, §2

[4] = system: rat alveolar macrophages (NR8383); assay: Cytotoxicity toward rat alveolar macrophages (NR8383), CellTox green assay; assay type: cell-based; details: NR8383 cells, any concentration tested (0.15 to about 15 μm), 20 h
Experimental: as §1, §2

[5] = target: T1, Human Inosine 5′-Monophosphate Dehydrogenase 1 (IMPDH) (Homo sapiens, UniProt P20839); assay: Inhibition of human inosine 5′-monophosphate dehydrogenase (IMPDH assay kit); assay type: biochemical
T1 construct: purchased R&D Systems 8904DH
T1 sequence (P20839 whole entry): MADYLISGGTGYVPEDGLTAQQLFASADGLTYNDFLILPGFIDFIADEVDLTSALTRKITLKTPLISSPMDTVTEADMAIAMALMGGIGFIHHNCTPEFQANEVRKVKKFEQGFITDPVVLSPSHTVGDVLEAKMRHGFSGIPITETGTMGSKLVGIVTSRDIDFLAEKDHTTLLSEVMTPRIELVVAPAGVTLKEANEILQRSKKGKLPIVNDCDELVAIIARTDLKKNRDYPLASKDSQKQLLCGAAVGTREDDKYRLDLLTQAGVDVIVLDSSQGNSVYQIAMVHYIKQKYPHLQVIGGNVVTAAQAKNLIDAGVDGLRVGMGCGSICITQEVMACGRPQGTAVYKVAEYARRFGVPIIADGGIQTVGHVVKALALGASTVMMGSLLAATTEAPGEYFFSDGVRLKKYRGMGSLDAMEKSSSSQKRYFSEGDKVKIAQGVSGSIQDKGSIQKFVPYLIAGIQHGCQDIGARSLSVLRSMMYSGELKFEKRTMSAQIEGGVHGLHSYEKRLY
Text: Human Inosine 5′-Monophosphate Dehydrogenase 1 (IMPDH) catalyzes the nicotinamide adenine dinucleotide (NAD)-dependent oxidation of inosine-5′-monophosphate (IMP) to xanthosine-5′-monophosphate (XMP), which is the committed step in de novo guanosine nucleotide biosynthesis. B and T lymphocytes depend on IMPDH activity to generate the guanosine nucleotide levels needed to initiate a proliferative response to mitogen or antigen.
A comparison of the ability of MPA and hexadecyl mycophenolate (mono-C16MP) to inhibit IMPDH was undertaken.
IMPDH (R&D Systems 8904DH) was incubated with mycophenolic acid (MPA) and, separately, mono-C16MP at concentrations ranging from about 0.015 to 15 μM. The IMPDH activity was determined using a BMR Service IMPDH assay kit (E-119).
Inhibition of IMPDH was calculated as a percentage of IMPDH activity in the absence of MPA.

[6] = Lung to plasma MPA ratio after inhaled dosing of MPS, MMF or mono-C16MP in mice; assay type: in vivo; details: inhalation, C57BL/6 mice, 0-6 h post-dose
Experimental: Studies to determine the lung to plasma ratio obtained by inhalation of mycophenolate sodium (MPS), mycophenolate mofetil (MMF), and hexadecyl mycophenolate (mono-C16MP) were conducted.
In each study group, C57BL/6 mice were given MPS, MMF or mono-C16MP by inhalation and the lung and plasma mycophenolic acid (MPA) concentrations were measured at t=0, 0.5, 1, 2, 4, and 6 h post-dose.
For each mouse in the study, the lung to plasma MPA ratios were calculated; the individual calculated ratios were averaged for each treatment group and the average values were plotted, shown in FIG. 6.

COc1c(C)c2c(c(O)c1C/C=C(\C)CCC(=O)O)C(=O)OC2 [mycophenolate sodium]
Emax [1]: 54%
IC50 [1]: 1500 nM
Emax [2]: 67%
IC50 [2]: 1400 nM
Cytotoxicity ([3]; 3 μM, P<0.05): 6.6%
Cytotoxicity ([3]; 10 μM, P<0.05): 8.9%
Cytotoxicity ([3]; concentrations <3 μM): no significant cytotoxicity
Cytotoxicity [4]: no significant cytotoxicity

CCCCCCCCCCCCCCCCOC(=O)CC/C(C)=C/Cc1c(O)c2c(c(C)c1OC)COC2=O [mono-C16MP, hexadecyl mycophenolate]
Inhibition of IMPDH ([5]; about 0.015 to 15 μM tested): does not inhibit IMPDH in a concentration-dependent manner
Lung to plasma exposure ratio of MPA compared to the ratio obtained with MPS or MMF [6]: higher lung to plasma exposure ratio

COc1c(C)c2c(c(O)c1C/C=C(\C)CCC(=O)O)C(=O)OC2 [MPA, (4E)-6-(4-hydroxy-6-methoxy-7-methyl-3-oxo-1,3-dihydro-2-benzofuran-5-yl)-4methylhex-4-enoic acid]
IC50 [5]: 140 nM
